Here are results for one molecule from US12397004B2, “Nasal delivery of low-dose aspirin for the treatment of neurodegenerative and lysosomal storage diseases” (Rush University Medical Center, priority 2018, dated 2025).

The test system of assay [1] is adoptively-transferred EAE. In words: Adoptive-transfer EAE in female SJL/J mice: clinical symptoms, grip test, rotorod after aspirin nebulization. Format: in vivo. The following applies: 0.2 and 0.4 mg/kg body wt/d. As for the experimental part: FIG. 2A-2C. Nebulization of low-dose aspirin reduced clinical symptoms of experimental allergic encephalomyetis (EAE) in female SJL/J mice. 2A) EAE was induced in 4-5 week old female SLJ/mice by adoptive transfer of myelin basic protein (MBP) primed T cells and from 9 days post-transfer (dpt), mice were treated with different doses of aspirin once daily for nebulization. Mice (n=6 per group in two independent experiments) were scored daily. On 16 dpt (acute phase), mice were examined for grip test (2B) and rotorod (2C). Results are presented as mean±SEM of six (6) mice per group. ^ap<0.001 vs control; ^bp<0.001 vs EAE by two-samples t-tests. Oral tablets of baby aspirin with a standard dosage of 81 mg were solubilized in hot double distilled water and cooled to room temperature. This liquid formulation was made fresh every week. In mice, an aspirin dose of 1 mg/kg body wt/d aspirin is equivalent to “Baby Aspirin” (81 mg tablet per adult). A Buxco Inhalation Tower All-In-One Controller by DSI™ was used for air supply for nebulization (FIG. 1A). A whole body chamber was fitted with an Aeroneb® Ultrasonic Nebulizer (FIG. 1B) supplied with air from a Buxco bias flow pump. Mice were allowed to nebulize aspirin at doses of […] mg/kg body wt/d (solubilized in a volume of 100 μl double-distilled water/mouse) for 3 min. Therefore, control group of mice also received 100 μl water by nebulization. Experimental allergic encephalomyelitis (EAE) is an animal model of MS, the most common human demyelinating disease. RR-EAE was induced in female SJL/J mice by adoptive transfer of myelin […] (MBP) primed T cells (FIG. 2A). As expected, induction of EAE reduced grip test (FIG. 2B) and rotorod (FIG. 2C) performances of mice. Mice were then nebulized with aspirin (0.2 and 0.4 mg/kg body wt/d in a volume of 100 μl/mouse) from 9 days post-transfer (dpt) of MBP-primed T cells. The control EAE group were treated with only water via nebulization. A dose of 0.2 mg/kg body wt/d aspirin equates to approximately 16 mg per adult. Clinical symptoms were monitored every day until 38 dpt. […]
On the technique in general: The rotarod test checks motor coordination on a turning rod.

The test system of a further assay is CD4+Foxp3+ Tregs. The assay can be described thus: FACS of lymph node cells of EAE mice for Foxp3 and CD4 (Tregs). The following applies: 0.2 and 0.4 mg/kg body wt/d, nebulization from 9 dpt, 16 dpt. Format: in vivo, female SJL/J mice. The procedure:
FIG. 3A-3B. Nebulization of low-dose aspirin improves regulatory T cells (Tregs) in vivo in mice with adoptive transfer EAE. Lymph node cells of control, EAE (16 dpt) and low doses of aspirin-treated EAE mice (16 dpt receiving 0.2 and 0.4 mg/kg body wt/d aspirin in 100 μl water from 9 dpt via nebulization) were analyzed by fluorescence activated cell sorting (FACS) for Foxp3 and CD4 (3A). The mean fluorescence intensity (MFI) of Foxp3 in CD4+ population was calculated by using CellQuest software (3B). Data were mean±SEM of four mice per group. ^ap<0.001 vs control; ^bp<0.001 vs EAE by two-samples t-tests. Tregs are most important immunomodulatory subtype of T lymphocytes (Sakaguchi, 2005; Sakaguchi and Powrie, 2007) that are known to suppress EAE and MS. Nebulization of aspirin was further investigated to determine whether nebulization was capable of enriching Tregs in vivo in EAE mice. EAE mice receiving aspirin nebulization from 9 dpt were sacrificed on 16 dpt, followed by analysis of Tregs in lymph node cells (LNC). Foxp3 protein is currently considered as the most important marker of Tregs and by dual fluorescence-activated cell sorting (FACS) staining, we found decrease in CD4^+Foxp3^+ Tregs in LNC of EAE mice (FIG. 3A-B). However, nebulization of EAE mice with aspirin at both 0.2 and 0.4 mg/kg body wt/d doses protected CD4+Foxp3+ Tregs (FIG. 3A-B).

A further assay deals with CD4+IL-17+ T cells. The assay can be described thus: FACS of lymph node cells of EAE mice for IL-17 and CD4 (Th17 response). Format: in vivo, female SJL/J mice. Particulars: 0.2 and 0.4 mg/kg body wt/d, nebulization from 9 dpt, 16 dpt. As for the experimental part: FIG. 4A-4B. Nebulization of low-dose aspirin suppresses the Th17 response in vivo in mice with adoptive transfer EAE. Lymph node cells of control, EAE (16 dpt) and low doses of aspirin-treated EAE mice (16 dpt receiving 0.2 and 0.4 mg/kg body wt/d aspiring in 100 μl water from 9 dpt via nebulization) were analyzed by FACS for IL-17 and CD4 (4A). The MFI of IL-17 in CD4+ population was calculated by using CellQuest software (4B). Data were mean±SEM of four mice per group. ^ap<0.001 vs control; ^bp<0.001 vs EAE by two-samples t-tests. T helper cell 17 (Th17) cells are considered to play a more important role than Th1 cells in the disease process of EAE and MS (El-behi et al., 2010). Since aspirin nebulization enriched Tregs, aspirin nebulization was tested to determine if aspirin nebulization was capable of suppressing Th17 response in vivo in EAE mice. Th17 cells are characterized by expression of IL-17 (Shi et al., 2008). […] However, nebulization of EAE mice with aspirin led to the suppression of the CD4+IL-17+ T cell population in LNC (FIG. 4A). This is also corroborated by mean fluorescence intensity (MFI) analysis of IL-17 within the CD4+ population (FIG. […]).

In assay [2] the test system is FAD5× mouse model of AD. In words: Barnes maze, hippocampus-dependent spatial behavior in FAD5× mice. Format: in vivo. The following applies: 0.2 and 0.4 mg/kg body wt/d, nebulization, 30 days. As for the experimental part:
FIG. 5A-5E. Nebulization of low-dose aspirin protects memory in the FAD5× mouse model of AD. Six to seven-month old FAD5× mice were treated with low doses (0.2 and 0.4 mg/kg body wt/d) of aspirin via nebulization. After 30 days of treatment, hippocampus-dependent spatial behavior was monitored by Barnes maze. 5A) Representative heat maps summarizing the overall activity of mice on the apparatus recorded with a Noldus camera and visualized by Ethovision XT software. 5B) Latency and 5C) number of errors made by all groups of mice. Context-dependent hippocampal behavior was analyzed by T-maze. 5D) Number of positive turns and 5E) number of negative turns of all groups of mice on an appetitive T-maze conditioning task were manually recorded. Results are presented as mean±SEM of 5 mice per group. ^ap<0.001 vs non-Tg; ^bp<0.001 vs FAD5×; ^cp<0.01 vs non-Tg; ^dp<0.05 vs FAD5×. A Buxco Inhalation Tower All-In-One Controller by DSI™ was used for air supply for nebulization (FIG. 1A). A whole body chamber was fitted with an Aeroneb® Ultrasonic Nebulizer (FIG. 1B) supplied with air from a Buxco bias flow pump. […] Hippocampus-dependent spatial learning and cognitive behavior can be reliably monitored in the Barnes maze test (Roy et al., 2013; Roy et al., 2015).

Assay [3] relates to FAD5× mouse model of AD. The assay can be described thus: T-maze, context-dependent hippocampal behavior in FAD5× mice. Type of assay: in vivo. Particulars: 0.2 and 0.4 mg/kg body wt/d, nebulization, 30 days. The procedure: FIG. 5A-5E. Nebulization of low-dose aspirin protects memory in the FAD5× mouse model of AD. Six to seven-month old FAD5× mice were treated with low doses (0.2 and 0.4 mg/kg body wt/d) of aspirin via nebulization. After 30 days of treatment, hippocampus-dependent spatial behavior was monitored by Barnes maze. 5A) Representative heat maps summarizing the overall activity of mice on the apparatus recorded with a Noldus camera and visualized by Ethovision XT software. 5B) Latency and 5C) number of errors made by all groups of mice. Context-dependent hippocampal behavior was analyzed by T-maze. 5D) Number of positive turns and 5E) number of negative turns of all groups of mice on an appetitive T-maze conditioning task were manually recorded. Results are presented as mean±SEM of 5 mice per group. ^ap<0.001 vs non-Tg; ^bp<0.001 vs FAD5×; ^cp<0.01 vs non-Tg; ^dp<0.05 vs FAD5×. T-maze apparatus monitors context-dependent hippocampal behavior, which may be a better index to test cognition in mice. […] However, similar to that observed with Barnes maze, nebulization of low doses of aspirin improved the performance of FAD5× mice on T maze as evident by increase in positive turns (FIG. 5D) and decrease in negative turns (FIG. 5E).

The test system of another assay is Aβ. The assay can be described thus: Western blot of Aβ in hippocampal extracts of FAD5× mice (6E10 and 82E1 antibodies). Type of assay: in vivo. The following applies: 0.2 and 0.4 mg/kg body weight/d, nebulization, 30 days, immunoblot. As for the experimental part: FIG. 6A-6D: Nebulization of very low-dose aspirin lowers cerebral plaque load in an animal model of AD. Six-month old FAD5× transgenic mice were treated with 0.2 mg/kg body wt/d and 0.4 mg/kg body wt/d aspirin via nebulization using the Buxco Inhalation Tower. After 30 days of treatment, Aβ levels were monitored in hippocampal extracts by Western blot analysis (A & C) and densitometric analysis (B & D) using 6E10 (A & B) and 82E1 (C & D) antibodies. Actin was used as loading control. Results are presented as mean±SEM of 4 mice per group. ^ap<0.001 vs non-Tg; ^bp<0.001 vs. FAD5×. To explore whether nebulization of very low-dose aspirin was capable of reducing the amyloid load in the hippocampus, the most affected brain region in AD, of FAD5× (Tg) mice, the following experiment was performed. […] The 82E1 is known to detect both soluble and fibrillar human Aβ to a similar degree.
(Immunoblotting shows a protein as a band on a membrane.)

The test system of assay [4] is Aβ immunoreactive plaques. In words: DAB immunostaining (6E10) of hippocampal sections, plaque load in FAD5× mice. Type of assay: in vivo. Particulars: 0.2 and 0.4 mg/kg body wt/d, nebulization, 30 days, 6E10 DAB staining. The procedure:
FIG. 7A-7B: Nebulization of very low-dose aspirin lowers cerebral plaque load in an animal model of AD. Six-month old FAD5× transgenic mice were treated with 0.2 mg/kg body wt/d and 0.4 mg/kg body wt/d aspirin via nebulization using the Buxco Inhalation Tower. After 30 days of treatment, A) diaminobenzidine (DAB) staining was performed in hippocampal sections using 6E10 antibody. B) Quantification of number of plaques in the hippocampus relative to nontransgenic. Two sections (two images per section) of each of five mice per group were used in counting. All data are represented as mean±SEM. ^ap<0.001 vs non-Tg; ^bp<0.001 vs. FAD5×. Next, in order to check the amyloid deposition in the brain, hippocampal sections were labeled with 6E10 antibody by diaminobenzidine immunostaining. Parallel to the immunoblot results, there was marked abundance of AP immunoreactive plaques in the hippocampus of Tg mice (FIG. 7A-B).

In a further assay the test system is myelin. The assay can be described thus: Demyelination in spinal cord of EAE mice (MBP immunostaining, Luxol fast blue). Format: in vivo, female SJL/J mice. The following applies: 0.2 and 0.4 mg/kg body wt/d, nebulization from onset of acute phase, MBP and LFB staining. The procedure: FIG. 8A-8C: Nebulization of very low-dose aspirin protects myelin in experimental autoimmune encephalomyelitis (EAE), a mouse model of multiple sclerosis. EAE was induced in female SJL/J mice (4-6 week old) by adoptive transfer of MBP-primed T cells. Mice were treated with 0.2 mg/kg body wt/d and 0.4 mg/kg body wt/d aspirin via nebulization using the Buxco Inhalation Tower from the onset of acute phase. A) Spinal cord sections were immunostained with MBP (red). B) Sections were also stained with Luxol fast blue. Digital images were collected under bright field setting using a 40× objective. Demyelination was represented quantitatively (C). Data are expressed as the mean±SEM of five different mice per group. […]. EAE is an animal model of human demyelinating disease multiple sclerosis (MS). It was determined whether aspirin nebulization decreased demyelination in mice with EAE. To examine demyelination, spinal cord sections were stained with MBP, a major component of myelin. Moreover, spinal cord sections were also stained with luxol fast blue (LFB), which reacts with myelin. As evident from MBP immunostaining (FIG. 8A) and LFB staining (FIG. 8B), there were widespread demyelination zones in the white matter in mice with EAE.

Assay [5] has as its system FAD5× mouse model of AD. The following applies: oral, 2 mg/kg body wt/d; cited from earlier work.
[6] abbreviates: nebulization from 9 dpt, tested 16 dpt.

On to `CC(=O)Oc1ccccc1C(=O)O` [aspirin, acetylsalicylic acid], for which, in assay [1] (setting [6]), the “grip test activity of EAE mice” value is “significantly improved” and the “rotorod activity of EAE mice” value is on record as “significantly improved”. Moreover, in [1] (nebulization once daily from 9 dpt, monitored until 38 dpt), the “clinical manifestations of adoptively-transferred EAE” value is reported as “strongly inhibited”. In the assay with CD4+Foxp3+ Tregs, the “CD4+Foxp3+ Tregs in lymph node cells” value was “protected”. The “CD4+IL-17+ T cell population in lymph node cells” value in the assay with CD4+IL-17+ T cells is reported as “suppression”. In addition, in the assay on FAD5× mouse model of AD [2], the Barnes maze errors entry is listed as “decreased” and the Barnes maze latency result is reported as “significantly improved”. In the assay on FAD5× mouse model of AD [3], the T-maze negative turns result is reported as “decrease” and the T-maze positive turns result was “increase”. The “level of Aβ in the hippocampus, 6E10 antibody” value in the assay with Aβ is on record as “significantly reduced”. Also, the “plaque load in the hippocampus” value in [4] is listed as “decreasing the plaque load”. For the same molecule, in the assay with myelin, the “loss of myelin in the spinal cord (demyelination)” value is recorded as “prevented the loss of myelin”. Besides, the memory and learning result in the assay with FAD5× mouse model of AD [5] is “protect memory and learning”.
